Data: patent EP4599817A1, “IMPACT ON ENAMEL AND DENTINE […] THROUGH MEDIATED IMPACT OF ANTAGONISTS ON TRPV1 AND TRCP5 […] IN ORAL CARE PRODUCTS” (SkyLab AG, priority 2024, dated 2025)
“And” between values parts separate entries of the source, which are not always exact repeats. Identical values can stand only once.

How the values were obtained:
TRPC5 receptors = molecular target: T1, TRPC5 receptors (Homo sapiens, UniProt Q9UL62); conditions: compared with galangin; cited from earlier work
T1 sequence (Q9UL62 1-973): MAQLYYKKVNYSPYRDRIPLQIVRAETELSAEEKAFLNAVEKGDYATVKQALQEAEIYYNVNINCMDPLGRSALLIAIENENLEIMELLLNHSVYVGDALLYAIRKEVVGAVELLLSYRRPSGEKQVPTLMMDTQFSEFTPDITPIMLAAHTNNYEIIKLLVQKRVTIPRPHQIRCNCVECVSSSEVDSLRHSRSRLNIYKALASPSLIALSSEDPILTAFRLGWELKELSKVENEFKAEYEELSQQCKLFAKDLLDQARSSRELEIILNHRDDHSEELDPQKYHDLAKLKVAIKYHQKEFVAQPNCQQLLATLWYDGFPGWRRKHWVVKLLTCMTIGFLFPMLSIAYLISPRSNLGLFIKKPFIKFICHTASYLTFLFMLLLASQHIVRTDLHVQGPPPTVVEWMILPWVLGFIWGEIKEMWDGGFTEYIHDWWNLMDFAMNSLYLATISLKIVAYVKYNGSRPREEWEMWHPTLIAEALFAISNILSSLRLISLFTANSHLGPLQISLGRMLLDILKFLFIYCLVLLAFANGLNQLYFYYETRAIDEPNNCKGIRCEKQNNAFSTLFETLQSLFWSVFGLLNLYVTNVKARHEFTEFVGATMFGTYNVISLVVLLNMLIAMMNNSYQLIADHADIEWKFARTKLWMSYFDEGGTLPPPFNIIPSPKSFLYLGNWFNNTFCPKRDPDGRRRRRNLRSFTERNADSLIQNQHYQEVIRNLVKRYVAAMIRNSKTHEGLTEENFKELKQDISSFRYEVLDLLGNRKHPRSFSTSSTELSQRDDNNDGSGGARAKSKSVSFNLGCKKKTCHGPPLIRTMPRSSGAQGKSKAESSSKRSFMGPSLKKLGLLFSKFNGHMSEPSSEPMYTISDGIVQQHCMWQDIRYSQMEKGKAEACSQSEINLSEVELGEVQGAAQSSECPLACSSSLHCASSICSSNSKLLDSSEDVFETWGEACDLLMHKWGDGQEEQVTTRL

hypersensitive teeth = test: Randomized controlled study of dentine hypersensitivity: visual analogue scale (VAS) score with hot applicator and ice cube, before and after first mouthwash application; type: in vivo, patients; design: key to Before Ice / Before Hot: VAS score, 0 = no pain to 10 = severe pain (10 cm line); conditions: for Hot After 1 use Mean / Ice After 1 use Mean / Before Hot Mean / Before Ice Mean / Hot After 1 use / Ice After 1 use: VAS 0-10; for Hot After 1 use Mean / Ice After 1 use Mean / Before Hot Mean / Before Ice Mean: group mean of 6 subjects; for Hot After 1 use Mean / Ice After 1 use Mean: after first application of mouthwash; for Hot After 1 use Mean / Before Hot Mean / Hot After 1 use / Before Hot / Modifications in HS after the product application, Hot After 1 use, %: applicator heated to 90C; for Ice After 1 use Mean / Before Ice Mean / Ice After 1 use / Before Ice / Modifications in HS after the product application, Ice After 1 use, %: ice cube; for Before Hot Mean / Before Ice Mean / Before Hot / Before Ice: baseline before mouthwash; for Hot After 1 use / Ice After 1 use / Before Hot / Before Ice: individual subjects 1-6; for Hot After 1 use / Ice After 1 use: after first application of mouthwash (potassium nitrate 5%, galangin 0,1%, adenosine 0,05%, oleic acid 0,1% or combination); for Before Hot / Before Ice: VAS 0 - no pain, 10 - severe pain; for Modifications in HS after the product application, Hot After 1 use, % / Modifications in HS after the product application, Ice After 1 use, %: decrease of mean VAS versus before, mouthwash, first application
Text: Table 2. Schedule of enrollment, intervention and assessment of the study
• Age from 18 to 35 years old • Good overall health; • At least one DHS tooth with sensitivity over or equal to 4 (VAS). Withdrawal criteria • Active caries or defective restorations on the tested tooth; • Considerable loss of dentine, requiring remedial treatment or paradental surgery; • Presence of veneers; • Any professional desensitizing treatment during previous 6 months; • Use of desensitizing toothpaste during previous 3 months. • Use of anti-inflammatory medicine or painkillers during enrollment; • Currently pregnant of breast-feeding.
The subjects were randomized into 6 treatment groups, two control groups of which were negative and positive controls (Fig. 3).
For random distribution of subjects, randomization was made as a draw with the website www.randomizer.org. An average value of initial points according to DHS degree was determined for each subject, and the subjects were randomized into treatment groups providing the equivalent initial DHS points for various treatment modes. All the hypersensitive teeth in each subject were estimated with the use of DHS; an average value was considered for the baseline. All the hypersensitive teeth were subjected and re-estimated. Next, and average value was calculated for the final estimation of sensitivity.
These products were used by them till the end of the study. An oral care set included soft toothbrush and toothpaste for general oral care.
The treatment groups received mouthwashes with the following systems; Table 3. Basic formulation of mouthwash to include the system: […]
The primary result expected in the study was the decrease of dental hypersensitivity after the first application of the product. The result of the system application was calculated with a visual analogue scale, which registers sensitivity with a 10 cm line. The line extremums are the pain limits, which the subject can feel from external irritant (0 - no pain; 10 - severe pain). First, dental sensitivity was registered with an ice cube and an applicator heated to 90C. After the first application, sensitivity to external irritant was registered with an ice cube and an applicator heated to 90C.
The tested sample size was 36 subjects. The data was collected and then filtered out from errors and processed with the standard functionality of MS Excel. The charts were made with Microsoft Excel software. Table 5. Results of hypersensitivity assessment study

[1] = oral administration; due to intensive metabolism; cited from earlier work
[2] = pure galangin; cited from earlier work
CYP1A1 = molecular target: T2, CYP1A1 (Homo sapiens, UniProt P04798); conditions: with various proteins, such as CYP1A1; transformation into kaempferol; cited from earlier work
T2 sequence (P04798 1-512): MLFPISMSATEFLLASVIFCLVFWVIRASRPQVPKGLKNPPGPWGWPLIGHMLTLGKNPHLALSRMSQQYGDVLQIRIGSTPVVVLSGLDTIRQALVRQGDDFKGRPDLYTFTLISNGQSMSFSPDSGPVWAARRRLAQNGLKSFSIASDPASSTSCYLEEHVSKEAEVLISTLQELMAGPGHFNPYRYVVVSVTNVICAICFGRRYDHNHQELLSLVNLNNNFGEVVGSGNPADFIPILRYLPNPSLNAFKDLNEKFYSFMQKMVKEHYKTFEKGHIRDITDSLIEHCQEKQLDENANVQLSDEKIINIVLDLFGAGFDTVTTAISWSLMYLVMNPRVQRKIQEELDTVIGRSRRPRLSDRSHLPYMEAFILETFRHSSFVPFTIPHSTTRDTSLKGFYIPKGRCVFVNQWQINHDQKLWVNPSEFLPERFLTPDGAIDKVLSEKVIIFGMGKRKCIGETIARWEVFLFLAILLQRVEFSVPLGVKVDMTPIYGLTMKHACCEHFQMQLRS

TRPC5 = conditions: animal model, cited from earlier work
TRPV1 = TRPV1 (Homo sapiens, UniProt Q8NER1); conditions: clinical trial after third molar extraction; trial terminated; cited from earlier work
Sequence of TRPV1 (Q8NER1 whole entry): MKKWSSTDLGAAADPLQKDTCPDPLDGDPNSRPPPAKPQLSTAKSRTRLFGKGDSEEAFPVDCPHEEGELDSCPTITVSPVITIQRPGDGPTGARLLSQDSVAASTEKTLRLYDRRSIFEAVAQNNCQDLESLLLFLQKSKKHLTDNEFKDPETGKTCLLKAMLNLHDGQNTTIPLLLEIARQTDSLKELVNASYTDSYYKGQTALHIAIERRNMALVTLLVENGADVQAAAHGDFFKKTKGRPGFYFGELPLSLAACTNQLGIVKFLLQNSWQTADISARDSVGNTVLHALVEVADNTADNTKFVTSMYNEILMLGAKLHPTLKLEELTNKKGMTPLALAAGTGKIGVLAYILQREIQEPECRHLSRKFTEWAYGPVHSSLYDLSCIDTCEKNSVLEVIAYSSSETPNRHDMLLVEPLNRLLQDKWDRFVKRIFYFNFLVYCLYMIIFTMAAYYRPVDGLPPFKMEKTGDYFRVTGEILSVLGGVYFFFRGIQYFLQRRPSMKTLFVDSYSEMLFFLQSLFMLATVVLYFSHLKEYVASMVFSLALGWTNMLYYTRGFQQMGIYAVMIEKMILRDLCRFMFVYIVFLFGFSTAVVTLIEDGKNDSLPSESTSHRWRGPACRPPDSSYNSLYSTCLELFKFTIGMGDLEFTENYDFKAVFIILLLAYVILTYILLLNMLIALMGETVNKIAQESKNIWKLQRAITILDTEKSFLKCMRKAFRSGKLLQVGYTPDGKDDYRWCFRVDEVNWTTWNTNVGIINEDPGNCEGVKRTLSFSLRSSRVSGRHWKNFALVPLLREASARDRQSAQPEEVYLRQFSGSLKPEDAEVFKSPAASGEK

Row | Compound | Hot After 1 use Mean (hypersensitive teeth) | Ice After 1 use Mean (hypersensitive teeth) | Before Hot Mean (hypersensitive teeth) | Before Ice Mean (hypersensitive teeth) | Modifications in HS after the product application, Hot After 1 use, % (hypersensitive teeth) [%] | Modifications in HS after the product application, Ice After 1 use, % (hypersensitive teeth) | also measured
1 | O=c1c(O)c(-c2ccc(O)cc2)oc2cc(O)cc(O)c12 [kaempferol] |  |  |  |  |  |  | impact on TRPC5 receptors (TRPC5 receptors): either does not affect TRPC5 receptors, or shows a significantly milder impact than that of galangin
2 | CCCCCCCC/C=C\CCCCCCCC(=O)O [Oleic acid, oleic acid] | 4,3 | 5,2 | 6,8 | 7,2 | 36.8 | 27.8% | Hot After 1 use (hypersensitive teeth; listed as 5): 3 and 5 and 4 (3×) and 6; Ice After 1 use (hypersensitive teeth; listed as 5): 8 and 4 (2×) and 6 (2×) and 3; Before Hot (hypersensitive teeth; listed as 5): 5 and 9 and 6 (2×) and 8 and 7; Before Ice (hypersensitive teeth; listed as 5): 9 and 8 (2×) and 5 and 7 and 6
3 | O=c1c(O)c(-c2ccccc2)oc2cc(O)cc(O)c12 [Galangin, galangin] | 4,6 | 2,5 | 5,2 | 5,8 | 11.5 | 56,9% | bioavailability [1]: extremely low bioavailability; solubility in water [2]: practically insoluble in water; metabolic oxidation (CYP1A1): prone to rapid metabolic oxidation; Hot After 1 use (hypersensitive teeth; listed as 3): 4 and 6 and 3 and 5 (3×); Ice After 1 use (hypersensitive teeth; listed as 3): 3 (2×) and 2 (2×) and 4 and 1; Before Hot (hypersensitive teeth; listed as 3): 3 and 6 (2×) and 4 and 7 and 5; Before Ice (hypersensitive teeth; listed as 3): 6 (3×) and 5 (2×) and 7
4 | Cc1cc(N2CCCCC2)nc2ccccc12 [ML204] |  |  |  |  |  |  | response to cold and pain (TRPC5; TRPC5 blockers): effectively eliminated any response to cold and prevented pain
5 | O=[N+]([O-])[O-].[K+] [Potassium nitrate] | 6 | 5,7 | 6,7 | 7,6 | 10.4 | 25% | Hot After 1 use (hypersensitive teeth; listed as 1): 5 (2×) and 4 and 7 (2×) and 8; Ice After 1 use (hypersensitive teeth; listed as 1): 5 (2×) and 4 and 7 (2×) and 6; Before Hot (hypersensitive teeth; listed as 1): 5 (2×) and 6 and 8 (3×); Before Ice (hypersensitive teeth; listed as 1): 7 and 8 (3×) and 6 and 9
6 | Nc1nc2ccc(OC(F)(F)F)cc2s1 [ruizole] |  |  |  |  |  |  | jaw sensitivity (TRPC5; agonist of TRPC5 channel): increased jaw sensitivity
7 | Nc1ncnc2c1ncn2[C@@H]1O[C@H](CO)[C@@H](O)[C@H]1O [Adenosine, adenosine] | 4 | 6,8 | 7,3 | 7 | 45.2 | 2.8% | Hot After 1 use (hypersensitive teeth; listed as 4): 5 and 6 and 4 (2×) and 2 and 3; Ice After 1 use (hypersensitive teeth; listed as 4): 8 and 9 and 6 (2×) and 5 and 7; Before Hot (hypersensitive teeth; listed as 4): 8 and 9 (2×) and 7 and 6 and 5; Before Ice (hypersensitive teeth; listed as 4): 8 (2×) and 7 (2×) and 6 (2×)
8 | CC(=O)Nc1nc2c(Oc3cc(-c4ccc(C(F)(F)F)cc4)ncn3)cccc2s1 [AMG 517] |  |  |  |  |  |  | body temperature (TRPV1): increased body temperature
